Measurements: PubChem BioAssay AID1224920 (Broad Institute, 2016)
“And” between values parts separate entries of the source, which are not always exact repeats. Equal values may be shown once. The source made the active and inactive calls.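 Rule for the calls: active = IC50 no higher than ten times the top tested dose; inconclusive = flat fit with 30 to 70% inhibition, or poor fit; inactive = IC50 above ten times the top dose.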

System: Clostridium difficile clinical isolate growth, OD600, 24 h
Assay: growth modulation of Clostridium difficile isolate – OD600, 9-point, retest, dose response (AID 1224920);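 note: inhibitors lower culture turbidity so OD600 falls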

Row | SMILES | IC50
1 | O=C(c1ccc(F)cc1)N1CC(=O)N2[C@@H](CO)[C@H](c3ccc(C#CCC4CCCC4)cc3)[C@@H]2C1 | 15.7 µM
2 | O=C(c1cccc(F)c1)N1CC[C@H]2[C@H](CO)Nc3ccc(-c4cccc(F)c4)cc3[C@H]21 | 124 µM
3 | Cc1ccccc1-c1ccc([C@H]2[C@@H](CO)N3CCCCN(C(=O)Nc4cccc(F)c4)C[C@H]23)cc1 | 10.6 µM
4 | c1ccc(CN2C[C@@H]3N[C@H](C2)C3c2ccc(-c3ccccc3)cc2)cc1 (stereo partly drawn) | 18.9 µM and 26.2 µM
5 | Cc1ccc(S(=O)(=O)N2[C@@H]3CNC[C@H]2C3c2ccc(-c3cccc(C)c3)cc2)cc1 (stereo partly drawn) | 32.1 µM
6 | Cc1ccc(S(=O)(=O)N2C[C@@H]3N[C@H](C2)C3c2ccc(/C=C/c3ccccc3)cc2)cc1 (stereo partly drawn) | 4.98 µM
7 | OC[C@H]1[C@@H](c2ccc(C#CC3CCCC3)cc2)[C@@H]2CN(CCC(F)(F)F)CCCCN12 | 48.2 µM
8 | C/C=C/c1ccc(C2[C@H]3CNC[C@@H]2N3C(=O)Nc2cccc(Cl)c2)cc1 (stereo partly drawn) | 54.4 µM
9 | COc1ccccc1NC(=O)N1CCCCN2[C@H](CO)[C@H](c3ccc(-c4ccc(C)cc4)cc3)[C@H]2C1 | 14.5 µM
10 | COc1ccccc1CN1C[C@@H]2N[C@H](C1)C2c1ccc(-c2ccccc2)cc1 (stereo partly drawn) | 13.3 µM
11 | COc1cc(CN2C[C@@H]3N[C@H](C2)C3c2ccc(/C=C/c3ccccc3)cc2)cc(OC)c1 (stereo partly drawn) | 9.5 µM
12 | O=C(Nc1ccc(F)cc1)N1CCCCN2[C@H](CO)[C@H](c3ccc(-c4ccccc4F)cc3)[C@H]2C1 | 55.9 µM
13 | Cc1cccc(-c2ccc([C@H]3[C@H](CO)N4CCCCN(CCC(F)(F)F)C[C@@H]34)cc2)c1 | 68.9 µM
14 | O=C(Nc1ccccc1)N1C[C@@H]2N[C@H](C1)C2c1ccc(-c2ccccc2F)cc1 (stereo partly drawn) | 52.3 µM
15 | COc1cccc(-c2ccc(C3[C@@H]4CN(Cc5cccc(F)c5)C[C@H]3N4)cc2)c1 (stereo partly drawn) | 9.52 µM and 7.62 µM
16 | O=C(Nc1ccccc1)N1CCCCN2[C@@H](CO)[C@@H](c3ccc(-c4ccccc4F)cc3)[C@@H]2C1 | 27.9 µM
17 | Cc1ccc(-c2ccc([C@H]3[C@@H](CO)N4CCCCN(C(=O)Nc5cccc(F)c5)C[C@H]34)cc2)cc1 | 4.44 µM
18 | O=C(C[C@@H]1CC[C@@H]2[C@H](COC[C@H](O)CN2C(=O)Nc2cc(Cl)cc(Cl)c2)O1)N1CCOCC1 | 20.4 µM
19 | Cc1cccc(-c2ccc(C3[C@H]4CNC[C@@H]3N4C(=O)Nc3ccc(F)cc3)cc2)c1 (stereo partly drawn) | 30.6 µM
20 | O=C(Nc1ccc(C(F)(F)F)cc1)N1[C@@H]2CNC[C@H]1C2c1ccc(-c2ccccc2F)cc1 (stereo partly drawn) | 10.3 µM and 83.8 µM
21 | O=C(Nc1ccccc1F)N1CCCCN2[C@H](CO)[C@@H](c3ccc(/C=C/c4ccccc4)cc3)[C@H]2C1 | 21.7 µM
22 | Fc1ccc(F)c(CN2[C@@H]3CNC[C@H]2C3c2ccc(-c3ccccc3)cc2)c1 (stereo partly drawn) | 44.8 µM

Row | SMILES | IC50
23 | Fc1ccc(CN2[C@@H]3CNC[C@H]2C3c2ccc(-c3ccccc3)cc2)cc1 (stereo partly drawn) | 28.6 µM
24 | O=S(=O)(Cc1ccccc1)N1CCCCN2[C@H](CO)[C@@H](c3ccc(C#Cc4ccccc4)cc3)[C@H]2C1 | > 240 µM (inactive)
25 | OC[C@@H]1[C@H](c2ccc(/C=C/c3ccccc3)cc2)[C@H]2CN(CCC(F)(F)F)CCCCN12 | 28.7 µM
26 | Fc1ccc(-c2ccc(C3[C@@H]4CN(Cc5nccs5)C[C@H]3N4)cc2)cc1 (stereo partly drawn) | 63 µM
27 | Cc1ccccc1-c1ccc([C@@H]2[C@H](CO)N3CCCCN(C(=O)Nc4cccc(F)c4)C[C@@H]23)cc1 | 14.7 µM
28 | O=C(NC[C@@H]1N[C@@H](CO)[C@H]1c1ccc(C2=CCCCC2)cc1)c1ccc(F)cc1 | 57.8 µM
29 | OC[C@H]1Nc2ccc(-c3ccc(F)cc3)cc2[C@H]2[C@@H]1CCN2Cc1ccc(F)cc1 | 44.3 µM
30 | O=C(NC[C@H]1N[C@H](CO)[C@@H]1c1ccc(C2=CCCC2)cc1)c1ccccc1 | 69.4 µM
31 | COc1ccc(S(=O)(=O)N2CCCCN3[C@H](CO)[C@H](c4ccc(C5=CCCCC5)cc4)[C@H]3C2)cc1 | 29.5 µM
32 | COc1cc(CN2C[C@@H]3N[C@H](C2)C3c2ccc(-c3ccccc3C)cc2)cc(OC)c1 (stereo partly drawn) | 18.8 µM and 13.7 µM
33 | COc1ccc(C#Cc2ccc([C@@H]3[C@H](CO)N4CCCCN(C(=O)Nc5ccc(F)cc5)C[C@@H]34)cc2)cc1 | 6.67 µM
34 | COc1ccccc1NC(=O)N1CCCCN2[C@@H](CO)[C@@H](c3ccc(-c4cccc(C)c4)cc3)[C@@H]2C1 | 23.5 µM
35 | O=C(Nc1ccc(C(F)(F)F)cc1)N1C[C@@H]2N[C@H](C1)C2c1ccc(-c2cccnc2)cc1 (stereo partly drawn) | 15.2 µM
36 | O=C(C1CCCCC1)N1CC[C@@H]2[C@H]1c1cc(C#Cc3ccc(F)cc3)ccc1N[C@@H]2CO | 45.2 µM
37 | O=C(C[C@H]1CC[C@@H]2[C@H](COC[C@H](O)CN2C(=O)Nc2ccc(Cl)c(Cl)c2)O1)NC1CCC1 | 8.25 µM
38 | O=C(C[C@H]1CC[C@H]2[C@@H](COC[C@H](O)CN2C(=O)Nc2ccc(C(F)(F)F)cc2)O1)NCC1CCCCC1 | 7.15 µM
39 | O=C(C1CCCC1)N1C[C@@H]2N[C@H](C1)C2c1ccc(/C=C/c2ccccc2)cc1 (stereo partly drawn) | 30.1 µM
40 | Cc1cccc(-c2ccc(C3[C@@H]4CN(C(=O)C5CCCC5)C[C@H]3N4)cc2)c1 (stereo partly drawn) | 62.9 µM
41 | O=C(C[C@H]1CC[C@H]2[C@@H](COC[C@@H](O)CN2C(=O)Nc2ccc(C(F)(F)F)cc2)O1)NCC1CCCCC1 | 6.01 µM
42 | OC[C@@H]1Nc2ccc(C#Cc3cccc(F)c3)cc2[C@@H]2NCC[C@H]12 | 42.8 µM
43 | O=C(c1ccccc1)N1CC[C@@H]2[C@H]1c1cc(-c3ccc(F)cc3)ccc1N[C@@H]2CO | 129 µM
